Source: the supplement of paper PMC10307832

Compound: CC1(C)CNc2cc(NC(=O)c3cccnc3NCc3ccncc3)ccc21 [Motesanib] + CC(C)C[C@H](NC(=O)[C@H](Cc1ccccc1)NC(=O)c1cnccn1)B(O)O [Bortezomib] (partner 0.002 µM)
Assay: relative viability (nuclei count vs DMSO), 5 days (fraction); higher = more cells survive
Conditions: first compound 0.01 µM
Summary of the method: (§1)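 Lung cancer cell lines in 1536-well plates were dosed by pin tool the day after seeding, either with one drug alone or with a fixed anchor-drug dose plus five library-drug doses (not always all listed) in √10 steps. After 5 days, cells were fixed and their nuclei stained in one step (final 0.05% Triton X-100, 1% formaldehyde, 1 ug/ml Hoechst), then counted on 4× images. Relative viability is the nuclei count in treated wells divided by that in vehicle wells. Values are medians of duplicate plates.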

In order of rising relative viability:
1. NCI-H1437  0.368
2. NCI-H1975  0.378
3. EPLC-272H  0.858
4. PC-14  0.87
5. NCI-H1651  0.914
6. NCI-H1755  0.927
7. NCI-H1792  0.931
8. NCI-H2023  0.934
9. HCC-15  0.97
10. NCI-H647  0.984
11. LXF-289  0.985
12. RERF-LC-KJ  1.01
13. LC-2-ad  1.02
14. NCI-H3122  1.04
15. NCI-H23  1.06
16. EKVX  1.1
17. NCI-H1355  1.2

Same assay, conditions: first compound 0.03162 µM

In order of rising relative viability:
1. HCC-78  0.375
2. NCI-H1975  0.406
3. NCI-H441  0.47
4. NCI-H1437  0.525
5. NCI-H2347  0.574
6. NCI-H1792  0.737
7. NCI-H23  0.766
8. NCI-H661  0.767
9. BEN  0.793
10. EPLC-272H  0.832
11. NCI-H1651  0.883
12. LCLC-97TM1  0.897
13. NCI-H1734  0.929
14. NCI-H1915  0.929
15. A-427  0.956
16. NCI-H1755  0.957
17. NCI-H3122  0.967
18. HCC-15  0.968
19. PC-14  0.975
20. LXF-289  0.976
21. NCI-H647  1.01
22. LC-2-ad  1.03
23. NCI-H2009  1.05
24. 201T  1.07
25. NCI-H2023  1.07
26. HCC-827  1.1
27. RERF-LC-KJ  1.13
28. NCI-H460  1.18
29. HARA  1.19
30. EKVX  1.19
31. NCI-H322M  1.24
32. NCI-H1355  1.33
33. LU99A  1.37
34. SK-LU-1  1.48

Same assay, conditions: first compound 0.1 µM

In order of rising relative viability:
1. NCI-H1975  0.326
2. NCI-H441  0.434
3. NCI-H1437  0.434
4. LCLC-97TM1  0.541
5. HCC-78  0.667
6. NCI-H661  0.765
7. BEN  0.869
8. HCC-15  0.886
9. NCI-H2023  0.887
10. LU99A  0.921
11. EPLC-272H  0.925
12. NCI-H1651  0.932
13. NCI-H1915  0.936
14. PC-14  0.95
15. A-427  0.973
16. NCI-H647  0.974
17. NCI-H1792  0.976
18. NCI-H1734  1.01
19. LXF-289  1.03
20. NCI-H3122  1.04
21. EKVX  1.04
22. LC-2-ad  1.04
23. NCI-H2009  1.05
24. NCI-H1755  1.06
25. HCC-827  1.07
26. NCI-H460  1.08
27. NCI-H2347  1.08
28. 201T  1.08
29. RERF-LC-KJ  1.09
30. HARA  1.21
31. NCI-H1355  1.22
32. SK-LU-1  1.3
33. NCI-H322M  1.39

Same assay, conditions: first compound 0.3162 µM

In order of falling relative viability:
1. SK-LU-1  1.38
2. NCI-H322M  1.36
3. NCI-H1355  1.35
4. NCI-H460  1.25
5. LU99A  1.22
6. NCI-H23  1.21
7. NCI-H2009  1.2
8. 201T  1.17
9. HCC-15  1.16
10. EKVX  1.14
11. LC-2-ad  1.14
12. LXF-289  1.13
13. NCI-H3122  1.12
14. HARA  1.11
15. RERF-LC-KJ  1.09
16. NCI-H647  1.06
17. NCI-H1792  1.04
18. HCC-827  1.03
19. NCI-H1755  0.988
20. NCI-H1915  0.98
21. A-427  0.969
22. NCI-H2023  0.966
23. NCI-H1734  0.918
24. NCI-H1651  0.873
25. BEN  0.861
26. NCI-H661  0.849
27. PC-14  0.81
28. NCI-H2347  0.799
29. NCI-H441  0.644
30. NCI-H1437  0.626
31. LCLC-97TM1  0.617
32. EPLC-272H  0.601
33. HCC-78  0.549
34. NCI-H1975  0.391

Same assay, conditions: first compound 1 µM

In order of falling relative viability:
1. SK-LU-1  1.58
2. NCI-H322M  1.23
3. LU99A  1.19
4. NCI-H1355  1.18
5. NCI-H23  1.16
6. HCC-827  1.15
7. HARA  1.11
8. NCI-H460  1.1
9. NCI-H1734  1.09
10. NCI-H2023  1.09
11. 201T  1.08
12. HCC-15  1.07
13. PC-14  1.06
14. EKVX  1.06
15. A-427  1.05
16. NCI-H2347  1.05
17. NCI-H661  1.04
18. LXF-289  1.03
19. NCI-H1792  1.03
20. RERF-LC-KJ  1.03
21. NCI-H1755  1.02
22. NCI-H3122  1.01
23. NCI-H2009  1
24. EPLC-272H  1
25. NCI-H1915  0.989
26. LC-2-ad  0.942
27. BEN  0.935
28. NCI-H1651  0.929
29. NCI-H647  0.883
30. NCI-H1437  0.615
31. NCI-H441  0.583
32. LCLC-97TM1  0.501
33. HCC-78  0.385
34. NCI-H1975  0.369

Compound: CC1(C)CNc2cc(NC(=O)c3cccnc3NCc3ccncc3)ccc21 [Motesanib] + Nc1ncn([C@H]2C[C@H](O)[C@@H](CO)O2)c(=O)n1 [Decitabine] (partner 2 µM)
Assay: as above
Conditions: first compound 0.01 µM
Summary of the method: as §1

In order of falling relative viability:
1. 201T  0.84
2. LC-2-ad  0.776
3. NCI-H1755  0.775
4. LU99A  0.752
5. NCI-H322M  0.688
6. SK-LU-1  0.676
7. NCI-H2347  0.667
8. HCC-78  0.657
9. RERF-LC-KJ  0.652
10. BEN  0.599
11. NCI-H1437  0.596
12. HCC-15  0.592
13. NCI-H1651  0.591
14. A-427  0.563
15. NCI-H460  0.531
16. NCI-H1734  0.51
17. HARA  0.492
18. NCI-H661  0.486
19. NCI-H1792  0.48
20. NCI-H3122  0.436
21. NCI-H647  0.43
22. LXF-289  0.406
23. NCI-H1355  0.4
24. NCI-H2009  0.394
25. EKVX  0.385
26. EPLC-272H  0.37
27. NCI-H1975  0.364
28. HCC-827  0.332
29. NCI-H23  0.31
30. NCI-H1915  0.272
31. NCI-H441  0.271
32. LCLC-97TM1  0.251
33. PC-14  0.243
34. NCI-H2023  0.23

Same assay, conditions: first compound 0.03162 µM

In order of rising relative viability:
1. PC-14  0.174
2. NCI-H2023  0.226
3. LCLC-97TM1  0.26
4. NCI-H1915  0.262
5. NCI-H441  0.307
6. NCI-H2009  0.369
7. EPLC-272H  0.371
8. NCI-H23  0.382
9. EKVX  0.404
10. NCI-H3122  0.409
11. NCI-H1355  0.413
12. HCC-827  0.421
13. LXF-289  0.427
14. NCI-H647  0.441
15. NCI-H460  0.453
16. NCI-H1975  0.459
17. NCI-H661  0.528
18. NCI-H1437  0.544
19. A-427  0.554
20. NCI-H2347  0.578
21. HCC-15  0.621
22. NCI-H1792  0.642
23. SK-LU-1  0.649
24. HCC-78  0.654
25. NCI-H322M  0.672
26. NCI-H1734  0.675
27. NCI-H1651  0.751
28. RERF-LC-KJ  0.752
29. LC-2-ad  0.758
30. BEN  0.788
31. NCI-H1755  0.838
32. 201T  0.864
33. HARA  0.878
34. LU99A  0.916

Same assay, conditions: first compound 0.1 µM

In order of falling relative viability:
1. 201T  0.925
2. HARA  0.905
3. LU99A  0.876
4. NCI-H1755  0.864
5. SK-LU-1  0.823
6. HCC-78  0.808
7. BEN  0.779
8. LC-2-ad  0.776
9. RERF-LC-KJ  0.719
10. NCI-H322M  0.707
11. NCI-H2347  0.701
12. NCI-H1734  0.695
13. NCI-H1651  0.661
14. HCC-15  0.648
15. LXF-289  0.617
16. NCI-H1792  0.594
17. NCI-H1437  0.58
18. NCI-H661  0.556
19. A-427  0.544
20. NCI-H441  0.502
21. NCI-H647  0.488
22. NCI-H460  0.467
23. NCI-H23  0.436
24. EKVX  0.427
25. NCI-H3122  0.422
26. HCC-827  0.406
27. NCI-H1975  0.406
28. NCI-H1355  0.395
29. NCI-H2009  0.394
30. EPLC-272H  0.387
31. NCI-H1915  0.36
32. LCLC-97TM1  0.285
33. NCI-H2023  0.281
34. PC-14  0.275

Same assay, conditions: first compound 0.3162 µM

In order of rising relative viability:
1. NCI-H2023  0.25
2. PC-14  0.257
3. LCLC-97TM1  0.261
4. NCI-H1915  0.306
5. EPLC-272H  0.335
6. HCC-827  0.344
7. NCI-H2009  0.38
8. EKVX  0.401
9. NCI-H1355  0.415
10. NCI-H1975  0.487
11. NCI-H441  0.514
12. NCI-H23  0.52
13. NCI-H647  0.542
14. NCI-H3122  0.548
15. NCI-H1437  0.548
16. A-427  0.568
17. NCI-H460  0.568
18. NCI-H1651  0.585
19. NCI-H1734  0.613
20. NCI-H661  0.631
21. NCI-H2347  0.642
22. LXF-289  0.651
23. NCI-H1792  0.657
24. RERF-LC-KJ  0.67
25. NCI-H322M  0.685
26. BEN  0.693
27. LC-2-ad  0.772
28. HCC-15  0.81
29. SK-LU-1  0.831
30. LU99A  0.847
31. NCI-H1755  0.905
32. 201T  0.939
33. HARA  1.06

Same assay, conditions: first compound 1 µM

In order of rising relative viability:
1. PC-14  0.231
2. LCLC-97TM1  0.295
3. HCC-827  0.309
4. EKVX  0.32
5. NCI-H2023  0.347
6. NCI-H1915  0.383
7. EPLC-272H  0.402
8. NCI-H1975  0.426
9. NCI-H2009  0.463
10. NCI-H441  0.478
11. NCI-H1355  0.495
12. NCI-H23  0.523
13. NCI-H647  0.535
14. NCI-H460  0.543
15. A-427  0.556
16. NCI-H3122  0.614
17. NCI-H661  0.625
18. NCI-H1437  0.629
19. RERF-LC-KJ  0.665
20. NCI-H2347  0.674
21. LXF-289  0.688
22. HCC-15  0.69
23. NCI-H1651  0.731
24. LC-2-ad  0.753
25. NCI-H322M  0.777
26. HCC-78  0.817
27. SK-LU-1  0.824
28. BEN  0.867
29. NCI-H1734  0.869
30. NCI-H1792  0.878
31. NCI-H1755  0.913
32. 201T  0.93
33. LU99A  1.01
34. HARA  1.05
